Source: PubChem BioAssay AID248 (DTP/NCI, 2004)
“And” between values parts separate entries of the source, which are not always exact repeats. Equal values may be shown once. Inconclusive results and toxic doses are left out. Rule as the data show it: active = T/C of 150% or more; inactive = T/C below 125%.

System: L1210 leukemia ip in BDF1 mice, survival T/C
Assay: NCI In Vivo Anticancer Drug Screen. Data for tumor model L1210 Leukemia (intraperitoneal) in B6D2F1 (BDF1) mice
Settings: endpoint: mean survival time, higher = longer survival
Outline: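 Antitumor effect is assessed in tumor-bearing animals. Survival in the compound arm is compared with a vehicle-dosed control arm and expressed as their quotient.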

[1] = dose: 100.0 mg/kg/injection, schedule: Q01DX009 (ip), vehicle: saline with Tween-80
[2] = dose: 200.0 mg/kg/injection, schedule: Q01DX009 (ip), vehicle: saline with Tween-80
[3] = dose: 400.0 mg/kg/injection, schedule: Q01DX009 (ip), vehicle: saline with Tween-80
[4] = dose: 25.0 mg/kg/injection, schedule: Q01DX009 (ip), vehicle: saline with Tween-80
[5] = dose: 100.0 mg/kg/injection, schedule: Q01DX009 (ip), vehicle: Klucel (hydroxypropylcellulose) (HPC)
[6] = dose: 100.0 mg/kg/injection, schedule: Q04DX003 (ip), vehicle: Klucel (hydroxypropylcellulose) (HPC)
[7] = dose: 200.0 mg/kg/injection, schedule: Q01DX009 (ip), vehicle: Klucel (hydroxypropylcellulose) (HPC)
[8] = dose: 200.0 mg/kg/injection, schedule: Q04DX003 (ip), vehicle: Klucel (hydroxypropylcellulose) (HPC)
[9] = dose: 400.0 mg/kg/injection, schedule: Q04DX003 (ip), vehicle: Klucel (hydroxypropylcellulose) (HPC)
[10] = dose: 100.0 mg/kg/injection, schedule: Q01DX001 (ip), vehicle: Klucel (hydroxypropylcellulose) (HPC)
[11] = dose: 200.0 mg/kg/injection, schedule: Q01DX001 (ip), vehicle: Klucel (hydroxypropylcellulose) (HPC)
[12] = dose: 400.0 mg/kg/injection, schedule: Q01DX001 (ip), vehicle: Klucel (hydroxypropylcellulose) (HPC)
[13] = dose: 400.0 mg/kg/injection, schedule: Q01DX009 (ip), vehicle: Klucel (hydroxypropylcellulose) (HPC)

Measured: T/C

NC(N)=N/N=C/C(=N\N=C(N)N)C(F)(F)F
inactive: dose: 15.0 mg/kg/injection, schedule: Q01DX Z (ip), vehicle: saline 102 % of control | dose: 30.0 mg/kg/injection, schedule: Q01DX Z (ip), vehicle: saline 98 % of control | dose: 60.0 mg/kg/injection, schedule: Q01DX Z (ip), vehicle: saline 101 % of control and 108 % of control | dose: 120.0 mg/kg/injection, schedule: Q01DX Z (ip), vehicle: saline 93 % of control and 106 % of control | dose: 120.0 mg/kg/injection, schedule: Q01DX Z (oral), vehicle: saline 96 % of control | dose: 240.0 mg/kg/injection, schedule: Q01DX Z (ip), vehicle: saline 98 % of control | dose: 240.0 mg/kg/injection, schedule: Q01DX Z (oral), vehicle: saline 104 % of control | dose: 480.0 mg/kg/injection, schedule: Q01DX Z (oral), vehicle: saline 98 % of control | dose: 960.0 mg/kg/injection, schedule: Q01DX Z (oral), vehicle: saline 98 % of control

C/C(=C\Nc1cccnc1)C(=O)c1ccc(F)cc1
inactive: [1] 102 % of control | [2] 102 % of control | [3] 98 % of control

NC1CC[N-]CC1.NC1CC[N-]CC1.NC1CC[N-]CC1.NC1CC[N-]CC1.[Cl][Rh][Cl]
inactive: dose: 6.25 mg/kg/injection, schedule: Q01DX009 (ip), vehicle: saline with Tween-80 100 % of control | dose: 12.5 mg/kg/injection, schedule: Q01DX009 (ip), vehicle: saline with Tween-80 96 % of control | [4] 104 % of control

O=C(/C=C/c1cccc([N+](=O)[O-])c1)NCCBr
inactive: [5] 101 % of control | [6] 95 % of control | [7] 101 % of control | [8] 97 % of control | [9] 95 % of control

Clc1ccc(C(c2ccc(Cl)cc2)N2CCNCC2)cc1
inactive: [4] 98 % of control

O=C(NC(=O)C(Cl)Cl)OC1c2cc(Cl)ccc2-c2c(Cl)cc(Cl)cc21 (stereo unspecified)
inactive: [10] 90 % of control | [5] 95 % of control | [6] 91 % of control | [11] 98 % of control | [7] 89 % of control | [8] 91 % of control | [12] 88 % of control | [9] 88 % of control

CN(C)/C=C1/C=Cc2ccccc21
inactive: dose: 100.0 mg/kg/injection, schedule: Q01DX009 (ip), vehicle: saline 98 % of control | dose: 200.0 mg/kg/injection, schedule: Q01DX009 (ip), vehicle: saline 101 % of control | dose: 400.0 mg/kg/injection, schedule: Q01DX009 (ip), vehicle: saline 97 % of control

O=C(O)c1ccccc1CCl
inactive: [1] 101 % of control | [2] 108 % of control | [3] 95 % of control

O=C(Nc1cccc(F)c1)Nc1ccccc1Cl
inactive: [5] 105 % of control | [7] 97 % of control | [13] 95 % of control

CCN(CC)CCCC(C)NC/C=C/CNC(C)CCCN(CC)CC (stereo unspecified)
inactive: dose: 0.78 mg/kg/injection, schedule: Q01DX009 (ip), vehicle: water 104 % of control | dose: 6.25 mg/kg/injection, schedule: Q04DX003 (ip), vehicle: water 105 % of control | dose: 12.5 mg/kg/injection, schedule: Q04DX003 (ip), vehicle: water 92 % of control | dose: 25.0 mg/kg/injection, schedule: Q01DX009 (ip), vehicle: water 104 % of control | dose: 25.0 mg/kg/injection, schedule: Q04DX003 (ip), vehicle: water 103 % of control

CCOC(Nc1ccc(Cl)c(Cl)c1)C(=O)c1ccccc1 (stereo unspecified)
inactive: dose: 100.0 mg/kg/injection, schedule: Q01DX001 (ip), vehicle: saline 105 % of control | dose: 200.0 mg/kg/injection, schedule: Q01DX001 (ip), vehicle: saline 105 % of control | dose: 400.0 mg/kg/injection, schedule: Q01DX001 (ip), vehicle: saline 96 % of control

O=C1NCN(c2ccccc2)C12CCN(Cc1nc3cc([N+](=O)[O-])ccc3n1-c1ccccc1)CC2
inactive: [10] 86 % of control | [11] 93 % of control | [12] 99 % of control

C[C@]1(O)CC[C@H]2[C@@H]3CC[C@@H]4C[C@H](O)CC[C@]4(C)[C@@]3(F)[C@@H](O)C[C@@]21C
inactive: dose: 50.0 mg/kg/injection, schedule: Q01DX Z (sc), vehicle: steriod suspending solution 107 % of control | dose: 250.0 mg/kg/injection, schedule: Q01DX Z (sc), vehicle: steriod suspending solution 101 % of control | dose: 500.0 mg/kg/injection, schedule: Q01DX Z (sc), vehicle: steriod suspending solution 95 % of control

CCCCCCCCCCCCCC(=O)N(CCCC)CCCC
inactive: dose: 50.0 mg/kg/injection, schedule: Q01DX009 (ip), vehicle: carboxymethylcellulose (CMC) 98 % of control and 90 % of control | dose: 100.0 mg/kg/injection, schedule: Q01DX001 (ip), vehicle: carboxymethylcellulose (CMC) 94 % of control | dose: 100.0 mg/kg/injection, schedule: Q04DX003 (ip), vehicle: carboxymethylcellulose (CMC) 95 % of control | dose: 200.0 mg/kg/injection, schedule: Q01DX001 (ip), vehicle: carboxymethylcellulose (CMC) 93 % of control | dose: 200.0 mg/kg/injection, schedule: Q04DX003 (ip), vehicle: carboxymethylcellulose (CMC) 92 % of control | dose: 400.0 mg/kg/injection, schedule: Q01DX001 (ip), vehicle: carboxymethylcellulose (CMC) 98 % of control | dose: 400.0 mg/kg/injection, schedule: Q01DX009 (ip), vehicle: carboxymethylcellulose (CMC) 95 % of control and 104 % of control | dose: 400.0 mg/kg/injection, schedule: Q04DX003 (ip), vehicle: carboxymethylcellulose (CMC) 96 % of control

Br/C=C/C[N+]12CN3CN(CN(C3)C1)C2
inactive: dose: 12.5 mg/kg/injection, schedule: Q01DX009 (ip), vehicle: saline 95 % of control | dose: 12.5 mg/kg/injection, schedule: Q04DX003 (ip), vehicle: saline 101 % of control | dose: 25.0 mg/kg/injection, schedule: Q01DX009 (ip), vehicle: saline 101 % of control | dose: 25.0 mg/kg/injection, schedule: Q04DX003 (ip), vehicle: saline 102 % of control | dose: 50.0 mg/kg/injection, schedule: Q01DX009 (ip), vehicle: saline 96 % of control | dose: 50.0 mg/kg/injection, schedule: Q04DX003 (ip), vehicle: saline 98 % of control

Cn1cc([N+](=O)[O-])cnc1=O
inactive: [6] 100 % of control | [8] 102 % of control | [9] 102 % of control

CCOP(=S)(OCC)SCc1c(C)c(C)c(CSP(=S)(OCC)OCC)c(C)c1C
inactive: [5] 95 % of control | [6] 103 % of control | [7] 103 % of control | [8] 101 % of control | [13] 93 % of control | [9] 105 % of control

C#CC1(NC(=O)NC(C)(C)C)CCCCC1
inactive: dose: 100.0 mg/kg/injection, schedule: Q04DX002 (ip), vehicle: saline with Tween-80 97 % of control | dose: 200.0 mg/kg/injection, schedule: Q04DX002 (ip), vehicle: saline with Tween-80 97 % of control | dose: 400.0 mg/kg/injection, schedule: Q04DX002 (ip), vehicle: saline with Tween-80 97 % of control

C=C/C=N/Nc1ccc([N+](=O)[O-])cc1
inactive: dose: 100.0 mg/kg/injection, schedule: Q04DX002 (ip), vehicle: Klucel (hydroxypropylcellulose) (HPC) 98 % of control | dose: 200.0 mg/kg/injection, schedule: Q04DX002 (ip), vehicle: Klucel (hydroxypropylcellulose) (HPC) 92 % of control | dose: 400.0 mg/kg/injection, schedule: Q04DX002 (ip), vehicle: Klucel (hydroxypropylcellulose) (HPC) 95 % of control
